Entries after “also recorded” stand apart in the source; their conditions may differ. Like-named read-outs stand apart in the source and are kept apart here.
Key:
p53 = test: Western blot of p53 serine-15 phosphorylation; assay type: cell-based; conditions: A549, western blot
Experimental: Real-Time PCR—A549 cells were plated in 10 cm dishes at 1.5×10^6, allowed to adhere, and treated for 24-48 hours with cisplatin or SMIs (5 μM). Referring now to FIG. 16B, Western blot of cells treated sequentially. For sequential treatment, A549 cells were exposed to cisplatin for 24 hours followed by the addition of SMIs for another 24 hours as above. Referring now to FIG. 16A, A549 cells were treated sequentially or concurrently with cisplatin (5 μM) and MCI13E or MCI13F for 24 total hours. Lysates were probed for p53-ser15-phosphorylation or phosphorylated-ATM. GAPDH was probed as a loading control. Concurrently treated cells were incubated simultaneously with both cisplatin and MCIs for 24 hours. RNA was extracted using RNeasy minikit (Qiagen, Germantown, Md.) per manufacturer's protocol. cDNA was generated using Applied Biosystem's (ABI) High Capacity RNA-to-cDNA kit. Validated gene primer/probe sets, also from ABI, were used for Quantitative Real Time-PCR. ABI's ΔΔCT Relative Quantification methodology was used for the analyses (applied Biosystems). Data were normalized to the housekeeping gene GAPDH and calibrated to the mock treated samples. Results presented are the average of two separate cell treatments/RNA isolations with duplicate Taqman Assays per RNA sample set. […]

[1] = biological target: T1, full-length heterotrimeric RPA (Homo sapiens, UniProt P27694); test: EMSA in vitro DNA binding assay, full-length heterotrimeric RPA; conditions: ssDNA substrate
T1 construct: Human full-length, un-tagged heterotrimeric RPA (RPA) was purified as previously describe; made in house
T1 sequence (P27694 whole entry): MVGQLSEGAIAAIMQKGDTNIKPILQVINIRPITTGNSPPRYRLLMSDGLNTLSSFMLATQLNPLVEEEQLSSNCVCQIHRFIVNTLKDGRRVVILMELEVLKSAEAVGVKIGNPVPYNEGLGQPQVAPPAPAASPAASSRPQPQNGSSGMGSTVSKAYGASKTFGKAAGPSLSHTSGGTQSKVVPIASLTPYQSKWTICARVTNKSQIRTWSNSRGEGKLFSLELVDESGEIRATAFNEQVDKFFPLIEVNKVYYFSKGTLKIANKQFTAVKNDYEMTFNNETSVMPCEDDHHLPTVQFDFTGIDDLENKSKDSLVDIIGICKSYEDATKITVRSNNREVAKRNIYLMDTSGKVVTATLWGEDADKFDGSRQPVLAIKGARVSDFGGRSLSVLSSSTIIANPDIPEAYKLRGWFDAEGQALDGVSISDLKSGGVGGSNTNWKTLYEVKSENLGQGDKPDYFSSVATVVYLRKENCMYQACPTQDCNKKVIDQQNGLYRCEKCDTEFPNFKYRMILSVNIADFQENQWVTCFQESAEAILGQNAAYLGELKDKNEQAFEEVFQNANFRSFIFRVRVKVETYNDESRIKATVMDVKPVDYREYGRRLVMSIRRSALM
T1 sequence (P15927 whole entry partner): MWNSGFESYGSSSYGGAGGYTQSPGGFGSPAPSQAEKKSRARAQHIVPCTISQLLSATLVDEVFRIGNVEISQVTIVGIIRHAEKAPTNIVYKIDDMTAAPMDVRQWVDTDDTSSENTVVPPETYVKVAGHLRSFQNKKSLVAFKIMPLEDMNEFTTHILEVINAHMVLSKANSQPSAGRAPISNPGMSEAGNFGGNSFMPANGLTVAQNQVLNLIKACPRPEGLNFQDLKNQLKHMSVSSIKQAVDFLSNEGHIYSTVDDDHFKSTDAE
T1 sequence (P35244 whole entry partner): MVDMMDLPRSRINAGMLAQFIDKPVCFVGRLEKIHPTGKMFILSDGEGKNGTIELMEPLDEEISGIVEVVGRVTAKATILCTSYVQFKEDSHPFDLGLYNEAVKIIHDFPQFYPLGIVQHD
Experimental: RPA. Human full-length, un-tagged heterotrimeric RPA (RPA) was purified as previously describe.
RPA and DBD-A/B Binding. EMSAs were performed as previously described (22) using a 30-base purine rich ssDNA substrate (3Pc3). Briefly, reactions contained 12.5 nM 5′-[^32P]-labeled 3Pc3 ssDNA and the indicated concentrations of RPA or DBD-A/B. Protein was pre-incubated with the indicated concentration of SMI for 30 minutes at 37° C. DNA was then added and reactions incubated for an additional 5 minutes at room temperature in a final reaction volume of 40 μL. Reactions were then resolved on a 6% native polyacrylamide gel and electrophoresed at 170 volts for 1 hour. Gels were dried and quantified via phosphorimager analysis and ImageQuant software (Molecular Dynamics).

H1299 cells = test: CCK-8 cell viability assay, H1299; assay type: cell-based
Experimental: Referring now to FIG. 13A. Cell Viability and Apoptosis of Ovarian and p53 null Lung Cancer Cell Lines. A) Ovarian cancer cell line A2780 and the p53 null lung cancer cell line, H1299, were treated with log dosing of MCI13E and viability analyzed via CCK-8 metabolic assay as described in Methods. Data is presented as cell survival which was determined as a percent of the untreated control cells and represents the average and standard deviation of triplicate experiments Referring now to FIG. 13B.
Ovarian cancer cell line, A2780, cells are difficult to use for crystal violet analysis due to their enhanced sensitivity to treatment. Therefore, the cell counting kit-8 (CCK) was used to determine the viability of A2780 cells in addition to the p53 null lung cancer cell line H1299, following a 24 hour treatment with log dosing of SMI. Cells were plated (1×10^5) in 24-well dishes and treated with inhibitor after 24 hours. After treatment media was aspirated and 1 ml of DMEM was added in addition to 100 μL of CCK-8 solution. Absorbance at 450 nm was measured over 4 hours in a SpectraMax M5 plate reader and values are presented as the percent untreated control at the two hour time point for three separate plate replicates each containing three assays per plate.

RPA DBD-A/B = biological target: T2, RPA DBD-A/B (Homo sapiens, UniProt P27694); test: EMSA DNA binding assay, RPA DBD-A/B construct
T2 construct: made in house; host or cells: E. coli BL21(DE3)
T2 sequence (P27694 181-422 limits assumed): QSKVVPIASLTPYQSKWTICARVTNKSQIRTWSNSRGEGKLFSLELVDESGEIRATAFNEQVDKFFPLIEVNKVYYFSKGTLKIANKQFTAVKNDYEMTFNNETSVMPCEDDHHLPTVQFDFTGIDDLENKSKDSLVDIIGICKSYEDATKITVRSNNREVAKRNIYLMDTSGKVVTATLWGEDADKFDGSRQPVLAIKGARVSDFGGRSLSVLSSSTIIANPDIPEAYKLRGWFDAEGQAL
Experimental: DBD-A/B. The sequence encoding the RPA p70 DNA binding domains A and B were subcloned from the hrRPA plasmid (provided by Dr. Marc Wold, University of Iowa) into the pET15b (Novagen) vector and the protein was expressed in BL21(DE3) cells (Stratagene) as previously described. Briefly, cells were grown to an OD600 of 0.8, induced with 0.5 mM isopropyl-1-thio-β-D-galactopyranoside (IPTG) at 37° C. for 2-3 hours. Small scale DBD-A/B preparations were obtained from 1 L cultures and following induction, cells were harvested by centrifugation at 700×g for 30 minutes at 4° C. The pellets were suspended in Buffer A (20 mM Tris, pH 7.5, 10% glycerol, 500 mM NaCl, 10 mM β-mercaptoethanol (BME) and 1 μg/mL phenylmethanesulfonylfluoride (PMSF), leupeptin and pepstatin) at 1 mL/gram of cells. The cells were lysed by sonication and insoluble material sedimented at 15,000×g for 30 minutes at 4° C. The supernatant was then loaded onto a 10 mL phosphocellulose column, equilibrated with Buffer A, and the flow-through material collected. Imidazole was added to 5 mM to the flow through which was then loaded onto a 2 mL nickel-NTA-agarose column. The column was then washed with Buffer A containing 50 mM imidazole after which protein was eluted from the column using a gradient from 50-500 mM imidazole. Fractions were analyzed for protein content using Bradford and SDS-PAGE analysis in addition to assessment of DNA binding activity as determined by anisotropy. Fractions containing the DBD-A/B protein were pooled and dialyzed overnight in Buffer B (1 mM HEPES, pH 7.2, 10 mM dithiothreitol (DTT), 50 mM NaCl and 1 μg/mL PMSF, pepstatin and leupeptin) and aliquots stored at −80° C.
RPA and DBD-A/B Binding. EMSAs were performed as previously described (22) using a 30-base purine rich ssDNA substrate (3Pc3). […] Gels were dried and quantified via phosphorimager analysis and ImageQuant software (Molecular Dynamics).

[2] = H1299, 24 hours after exposing the cells, read-out: IC50, cell viability
[3] = H1299, read-out: IC50, cell viability (text to Table 3)

SMILES	p53 serine-15 phosphorylation, single agent (p53)	Inhibition of full-length RPA DNA binding [1]	IC50 (H1299 cells; H1299 (p53 null), 24 hours of treatment, CCK-8, read-out: IC50, cell viability) [nM]	IC50 (H1299 cells; [2]) [nM]	IC50 (H1299 cells; [3]) [nM]	Inhibition of DBD-A/B DNA binding (RPA DBD-A/B)
CC1(C)C2CCC1(C)C(OC(=O)CBr)C2 (racemic) [MCI13E, (+/−)-Isobornyl bromoacetate]	minimal single-agent effects on p53 phosphorylation	inhibits RPA-DNA binding in vitro; also recorded: inhibition of the full-length heterotrimer RPA	~4000	500	~500	no inhibitory activity; also recorded: completely ineffective
CC1(C)C2CCC1(C)C(OC(=O)CI)C2 (racemic) [MCI13F, (+/−)-Isobornyl iodoacetate]	minimal single-agent effects on p53 phosphorylation	slightly more effective	–	500	~500	no inhibitory activity; also recorded: completely ineffective
